According to ChEMBL document CHEMBL4261649, “Design and synthesis of boron containing monosaccharides by the hydroboration of d-glucal for use in boron neutron capture therapy (BNCT)” (Bioorg Med Chem, 2018):
Active and inactive are the calls of the source. No cut-off for these calls is given here.

Legend:
hexokinase [1] = assay: (§1) Substrate activity at hexokinase (unknown origin) assessed as compound phosphorylation after 1 days in presence of ATP by 31-P NMR spectroscopic analysis; format: ADME; conditions: human, hexokinase (isolated enzyme); read-out: Activity
[2] = as §1; format: ADME; conditions: human, 24 h
hexokinase [3] = assay: Substrate activity at hexokinase (unknown origin) assessed as compound phosphorylation after 5 days in presence of ATP by 31-P NMR spectroscopic analysis; format: ADME; conditions: human, hexokinase (isolated enzyme); read-out: Activity
A549 = assay: Cytotoxicity against human A549 cells assessed as reduction in cell viability up to 1600 uM after 16 hrs by MTT assay; format: functional, cell-based
HeLa S3 = assay: Cytotoxicity against human HeLaS3 cells assessed as reduction in cell viability up to 1600 uM after 16 hrs by MTT assay; format: functional, cell-based
[4] = Drug uptake in human A549 cells at 30 uM after 7 to 24 hrs under normoxic condition by ICP-MS analysis; format: ADME, cell-based; conditions: a549, 30 µM
[5] = Drug uptake in human HeLaS3 cells at 30 uM after 7 to 24 hrs under normoxic condition by ICP-MS analysis; format: ADME, cell-based; conditions: hela s3, 30 µM
[6] = Drug uptake in human HeLaS3 cells at 30 uM after 7 to 24 hrs under hypoxic condition by ICP-MS analysis; format: ADME, cell-based; conditions: hela s3, 30 µM
[7] = Drug uptake in human A549 cells at 30 uM after 7 to 24 hrs under hypoxic condition by ICP-MS analysis; format: ADME, cell-based; conditions: a549, 30 µM
[8] = Drug uptake in human HeLaS3 cells assessed per cell at 30 uM after 7 hrs under normoxic condition by ICP-MS analysis; format: ADME, cell-based; conditions: hela s3, 7 h
[9] = Drug uptake in human HeLaS3 cells assessed per cell at 30 uM after 7 hrs under hypoxic condition by ICP-MS analysis; format: ADME, cell-based; conditions: hela s3, 7 h

Row | SMILES | metabolised at 24 h (hexokinase [1]) [%] | Activity [2] | metabolised at 120 h (hexokinase [3]) [%] | Activity (A549) | Activity (HeLa S3) | Drug uptake [4] | Drug uptake [5] | Drug uptake [6] | Drug uptake [7] | Drug uptake [8] [fmol] | Drug uptake [9] [fmol]
1 | OC[C@H]1OC(O)[C@H](O)[C@@H](O)[C@@H]1O (stereo partly drawn) [DEXTROSE] | 97 |  |  |  |  |  |  |  |  |  | 
2 | O=P(O)(O)OC[C@H]1OC(O)[C@H](O)[C@@H](O)[C@@H]1O (stereo partly drawn) |  | Active | 19 |  |  |  |  |  |  |  | 
3 | OC[C@H]1OC[C@H](B2OCCCO2)[C@@H](O)[C@@H]1O |  |  |  | Active | Active | Active | Active |  |  |  | 
4 | CC1CC(C)OB([C@H]2CO[C@H](CO)[C@@H](O)[C@@H]2O)O1 (stereo partly drawn) |  |  |  | Active | Active | Active | Active |  |  |  | 
5 | CC1(C)OB([C@H]2CO[C@H](CO)[C@@H](O)[C@@H]2O)OC1(C)C |  | Not Active |  | Active | Active | Active | Active | Active | Active |  | 
6 | OC[C@H]1OC[C@H](B(O)O)[C@@H](O)[C@@H]1O |  | Active |  | Active | Active | Active | Active | Active | Active | 0.3 | 0.4
7 | c1ccc(B2OC3(CCCCC3)C3(CCCCC3)O2)c(CN2CCNCCNCCNCC2)c1 |  |  |  |  |  | Active | Active | Active | Active |  | 
8 | N[C@@H](Cc1ccc(B(O)O)cc1)C(=O)O |  |  |  | Active | Active | Active | Active | Active | Active |  | 
9 | OC[C@H]1OC[C@H](B2OC3(CCCCC3)C3(CCCCC3)O2)[C@@H](O)[C@@H]1O |  |  |  | Active | Active | Active | Active | Active | Active |  | 
